Reference: the supplement of paper PMC10307832

Experiments:
Experiment in all cases: relative viability (nuclei count vs DMSO), 5 days (fraction); higher = more cells survive
CX-5461 + Pictilisib = compound: Cc1cnc(CNC(=O)c2c(=O)c3ccc(N4CCCN(C)CC4)nc3n3c2sc2ccccc23)cn1 [CX-5461] + CS(=O)(=O)N1CCN(Cc2cc3nc(-c4cccc5[nH]ncc45)nc(N4CCOCC4)c3s2)CC1 [Pictilisib] (partner 1 µM)
Procedure, shortened: (§1)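 Relative viability was taken as the ratio of nuclei in treated wells to nuclei in vehicle wells. Lung cancer cell lines in 1536-well plates received compounds by pin tool one day after seeding, either one drug alone or a fixed anchor-drug dose plus five library-drug doses (not always all listed) in √10 steps. Nuclei were counted on 4× images after 5 days of treatment, and values are medians of duplicate plates.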

CX-5461 + Lapatinib = compound: Cc1cnc(CNC(=O)c2c(=O)c3ccc(N4CCCN(C)CC4)nc3n3c2sc2ccccc23)cn1 [CX-5461] + CS(=O)(=O)CCNCc1ccc(-c2ccc3ncnc(Nc4ccc(OCc5cccc(F)c5)c(Cl)c4)c3c2)o1 [Lapatinib] (partner 2 µM)
Procedure, shortened: as §1

IMD-0354 + Alpelisib = compound: O=C(Nc1cc(C(F)(F)F)cc(C(F)(F)F)c1)c1cc(Cl)ccc1O [IMD-0354] + Cc1nc(NC(=O)N2CCC[C@H]2C(N)=O)sc1-c1ccnc(C(C)(C)C(F)(F)F)c1 [Alpelisib] (partner 2 µM)
Procedure, shortened: as §1

IMD-0354 + Lapatinib = compound: O=C(Nc1cc(C(F)(F)F)cc(C(F)(F)F)c1)c1cc(Cl)ccc1O [IMD-0354] + CS(=O)(=O)CCNCc1ccc(-c2ccc3ncnc(Nc4ccc(OCc5cccc(F)c5)c(Cl)c4)c3c2)o1 [Lapatinib] (partner 2 µM)
Procedure, shortened: as §1

Cell Line	relative viability (CX-5461 + Pictilisib; first compound 0.01 µM)	relative viability (CX-5461 + Pictilisib; first compound 0.1 µM)	relative viability (CX-5461 + Pictilisib; first compound 0.3162 µM)	relative viability (CX-5461 + Pictilisib; first compound 1 µM)	relative viability (CX-5461 + Lapatinib; first compound 0.01 µM)	relative viability (CX-5461 + Lapatinib; first compound 0.03162 µM)	relative viability (CX-5461 + Lapatinib; first compound 0.1 µM)	relative viability (CX-5461 + Lapatinib; first compound 0.3162 µM)	relative viability (CX-5461 + Lapatinib; first compound 1 µM)	relative viability (IMD-0354 + Alpelisib; first compound 0.04 µM)	relative viability (IMD-0354 + Alpelisib; first compound 0.1265 µM)	relative viability (IMD-0354 + Alpelisib; first compound 0.4 µM)	relative viability (IMD-0354 + Alpelisib; first compound 1.265 µM)	relative viability (IMD-0354 + Alpelisib; first compound 4 µM)	relative viability (IMD-0354 + Lapatinib; first compound 0.04 µM)	relative viability (IMD-0354 + Lapatinib; first compound 0.1265 µM)	relative viability (IMD-0354 + Lapatinib; first compound 0.4 µM)	relative viability (IMD-0354 + Lapatinib; first compound 1.265 µM)	relative viability (IMD-0354 + Lapatinib; first compound 4 µM)	relative viability (CX-5461 + Pictilisib; first compound 0.03162 µM)
NCI-H1299	0.842	0.768	0.799	0.545	0.945	0.975	1	0.982	0.866	1.01	1.02	0.709	0.276	0.194	0.844	0.964	0.462	0.221	0.185	
NCI-H2228	0.646	0.255	0.432	0.153	1.13	0.764	0.473	0.668	0.166	0.686	0.738	0.631	0.263	0.182	1.23	1	0.632	0.306	0.241	0.425
IA-LM	0.337	0.254	0.33	0.207	0.692	0.748	0.715	0.669	0.475	0.806	0.617	0.634	0.106	0.178	0.628	0.743	0.412	0.285	0.235	0.327
NCI-H647	0.429	0.426	0.136	0.28	1.24	1.1	1.01	0.949	0.226	1.77	0.995	0.623	0.144	0.173	1.63	0.859	0.495	0.193	0.0984	0.459
LK-2		0.652		0.492		1.06	1.01		0.817	1.77	0.711	0.647	0.611	0.372	1.14	0.9	0.545	0.844	0.288	0.623
NCI-H358	0.29	0.249	0.19	0.316	0.389	0.447	0.392	0.267	0.306	0.944	0.746	0.429	0.223	0.306	0.541	0.441	0.413	0.273	0.192	0.323
NCI-H2085	0.551	0.435	0.514	0.374	0.806	0.718	0.667	0.324	0.615	0.899	0.888	0.764	0.492	0.269	0.78	0.797	0.64	0.389	0.298	0.408
NCI-H727	0.355	0.277	0.253	0.614	0.862	0.997	0.682	0.729	0.631	0.606	0.641	0.497	0.396	0.352	0.801	0.84	0.55	0.439	0.325	0.492
LOU-NH91	0.57	0.528	0.452	0.486	0.63	0.811	0.747	0.442	0.68	0.755	0.729	0.541	0.244	0.231	0.85	0.804	0.337	0.226	0.222	0.497
NCI-H3122	0.558	0.617	0.533	0.608	1.01	0.992	0.897	1	0.854	0.845	0.917	0.365	0.271	0.163	1.05	0.983	0.747	0.202	0.211	0.657
NCI-H460	0.462	0.366	0.108	0.2	1.17	1.11	0.23	0.0503	0.0174	0.544	0.49	0.2	0.0672	0.0154	1.08	0.679	0.178	0.0562	0.0153	0.338
NCI-H650	0.858	0.889	0.664	0.731	0.94	1.01	0.915	0.312	0.934	1.03	1.07	0.943	0.615	0.215	1.11	0.864	0.614	0.451	0.22	1.05
NCI-H661	0.372	0.377	0.374	0.382	0.382	0.533	0.611		0.402	0.838	0.772	0.401	0.345	0.248	0.466	0.458	0.477	0.538	0.273	0.405
NCI-H1944	0.335	0.332		0.353	0.777	0.981	0.806		0.655	0.694	0.854		0.902	0.144	0.699	0.862		0.922	0.171	0.371
NCI-H1734	0.516	0.503	0.317	0.341	1.08	1.12	0.951	0.553	0.523	0.944	0.786	0.422	0.452	0.254	1.23	1.07	0.493	0.232	0.218	0.519
LXF-289	0.789	0.805	0.72	0.435	0.897	0.936	0.947	0.602	0.487	1.09	1.06	0.711	0.265	0.0502	0.948	0.895	0.835	0.301	0.188	0.922
H3255	0.489	0.469	0.347	0.422	0.237	0.236	0.263	0.167	0.236	0.723	0.793	0.46	0.364	0.241	0.189	0.246	0.276	0.17	0.207	0.554
201T	0.713	0.753	0.708	0.721	1.01	1.06	1.03	0.82	0.981	1.02	1.08	0.683	1.1	0.351	1.07	1.08	0.827	1.04	0.333	0.748
NCI-H2126	0.486	0.478	0.518	0.487	0.786	0.803	0.727	0.622	0.72	0.784	0.722	0.682	0.714	0.263	0.793	0.803	0.655	0.768	0.378	0.521
HOP-62	0.592	0.727	0.167	0.623	1.11	1.12	1.23	0.167	0.908	0.839	1.2	0.896	0.837	0.178	0.974	1.13	0.603	0.662	0.0827	1.16
CAL-12T	0.384	0.331	0.33	0.449	0.697	0.673	0.486	0.247	0.617	1.49	1.31	0.596	0.267	0.173	0.611	0.665	0.533	0.4	0.259	0.386
NCI-H520	0.218	0.285	0.305	0.298	0.782	0.692	0.784	0.619	0.491	0.906	0.948	0.381	0.383	0.214	0.932	0.792	0.46	0.197	0.197	0.299
NCI-H1755	0.463	0.446	0.301	0.383	1.05	1.03	1.06	0.531	0.972	0.964	0.562	0.43	0.57	0.222	1.31	1.1	0.598	0.303	0.197	0.484
NCI-H2023	0.284		0.0857	0.102	0.788	0.794		0.143	0.106	0.696	0.577	0.439	0.312	0.122	0.717	0.841	0.662	0.0897	0.084	0.257
NCI-H2009	0.87	0.635	0.519	0.815	0.906	1.04	0.584	0.39	0.466	1.14	1.03	0.929	0.239	0.127	0.82	0.832	0.647	0.134	0.155	0.862
